The record followed here is patent US9670227B2, “Thienopyrimidine derivatives, a process for their preparation and pharmaceutical compositions containing them” (LES LABORATOIRES SERVIER, priority 2013, dated 2017).

Like-named read-outs stand apart in the source and are kept apart here.

The subject of test [1] is H929 multiple myeloma tumour line. The test is described as follows: In vitro cytotoxicity, Microculture Tetrazolium Assay. In kind it is cell-based. As to conditions: H929 cells, 48 hours exposure, read-out: IC50 (μM) MTT H929. As for the experimental part:
The cytotoxicity studies were carried out on the H929 multiple myeloma tumour line.
The cells are distributed onto microplates and exposed to the test compounds for 48 hours.

The test system of test [2] is AMO-1 multiple myeloma cells. The test is described as follows: Quantification of the cleaved form of PARP in vivo (MSD ELISA, tumour lysates). Also on record: species or system mice (SCID strain). As to conditions: activation factor: cleaved PARP in treated mice / control mice, AMO-1 xenograft in SCID mice, intraveinous or oral routes. Put shortly:
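SCID mice bearing subcutaneous AMO-1 xenografts (1.10^7 cells) dosed intravenously or orally 12 to 14 days after grafting. Cleaved PARP in tumour lysates measured by MSD ELISA. Reported as activation factor, the ratio of treated to control cleaved PARP.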
Background: In an ELISA, binding on a coated surface is turned into a signal by an enzyme label.

A further test has as its target Mcl-1 protein (UniProtKB primary accession number: Q07820) (Homo sapiens, UniProt Q07820). Description: Inhibition of Mcl-1 by fluorescence polarisation, Method 1. Format: binding. To be noted: read-out: IC50 (M) Mcl-1 FP. The procedure, abridged: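 FP readout of relative binding potency. Mcl-1 5 nM final, fluorescein-labelled ligand 1 nM final; buffer 10 mM HEPES, 150 mM NaCl, 0.05% Tween 20, pH 7.4; 11-pt dilution series, 5% DMSO final.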
Background: In fluorescence polarisation assays a small probe gives low polarisation when free and higher when bound to something large.

[3] abbreviates: Homo sapiens, NCI-H929, 48 h, MTT.
[4] abbreviates: fluorescence polarisation test, Method 2 values are underlined in the patent (underlining not visible here).
The mark [5] stands for this setting: fluorescence polarisation, Method 1, or Method 2.

Mcl-1 protein, sequence (Q07820 whole entry): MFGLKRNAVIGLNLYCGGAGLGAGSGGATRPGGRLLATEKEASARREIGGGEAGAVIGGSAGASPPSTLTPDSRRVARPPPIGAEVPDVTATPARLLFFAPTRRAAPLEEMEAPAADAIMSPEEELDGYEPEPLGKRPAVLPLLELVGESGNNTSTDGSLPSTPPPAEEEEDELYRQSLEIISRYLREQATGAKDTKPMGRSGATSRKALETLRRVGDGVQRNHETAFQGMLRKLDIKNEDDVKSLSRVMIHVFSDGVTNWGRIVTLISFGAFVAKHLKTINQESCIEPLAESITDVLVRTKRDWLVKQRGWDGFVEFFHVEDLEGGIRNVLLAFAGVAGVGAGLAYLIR

The term IC50 denotes the midpoint of a concentration-inhibition curve. As to `COCCNc1nccc(COc2ccccc2CC(Oc2ncnc3sc(-c4ccc(F)cc4)c(-c4ccc(OCCN5CCN(C)CC5)c(Cl)c4C)c23)C(=O)O)n1` [Example 53, (2R)-2-{[(5Sa)-5-{3-chloro-2-methyl-4-[2-(4-methylpiperazin-1-yl)ethoxy]phenyl}-6-(4-fluorophenyl)thieno[2,3-d]pyrimidin-4-yl]oxy}-3-[2-({2-[(2-methoxyethyl)amino]pyrimidin-4-yl}methoxy)phenyl]propanoic acid], the figures for the IC50 (in test [1] (setting [3]); on Mcl-1 protein (setting [4])) were 0.015 µM and 3.4e-09 M, respectively. Also, the PARP fold in test [2] was 178.7 fold.

As for `COc1ccccc1-c1nccc(COc2ccccc2CC(Oc2ncnc3sc(-c4ccc(F)cc4)c(-c4ccc(OCCN5CCN(C)CC5)c(Cl)c4C)c23)C(=O)OC(C)C)n1` [Example 788, propan-2-yl (2R)-2-{[(5Sa)-5-{3-chloro-2-methyl-4-[2-(4-methylpiperazin-1-yl)ethoxy]phenyl}-6-(4-fluorophenyl)thieno[2,3-d]pyrimidin-4-yl]oxy}-3-(2-{[2-(2-methoxyphenyl)pyrimidin-4-yl]methoxy}phenyl)propanoate], the IC50 came out at 0.494 µM in test [1] (setting [3]) and 6.74e-07 M on Mcl-1 protein (setting [5]). The compound further returned a PARP fold in test [2] of 144.8 fold.

`Cc1c(-c2c(-c3ccc(F)cc3)sc3ncnc(OC(Cc4ccccc4OCc4ccnc(OCC(F)(F)F)n4)C(=O)O)c23)ccc(OCCN2CCN(C)CC2)c1Cl` [Example 58, (2R)-2-{[(5Sa)-5-{3-chloro-2-methyl-4-[2-(4-methylpiperazin-1-yl)ethoxy]phenyl}-6-(4-fluorophenyl)thieno[2,3-d]pyrimidin-4-yl]oxy}-3-(2-{[2-(2,2,2-trifluoroethoxy)pyrimidin-4-yl]methoxy}phenyl)propanoic acid]: the values for the half-inhibitory concentration (IC50) (in test [1] (setting [3]); at Mcl-1 protein (setting [4])) were 0.01 µM and 4e-09 M, respectively. The PARP fold in test [2] is on record as 181.9 fold.

For the compound `Cc1c(-c2c(-c3ccc(F)cc3)sc3ncnc(OC(Cc4ccccc4OCc4ccnc(-c5ccccc5F)n4)C(=O)O)c23)ccc(OCCN2CCN(C)CC2)c1Cl` [Example 114, (2R)-2-{[(5Sa)-5-{3-chloro-2-methyl-4-[2-(4-methylpiperazin-1-yl)ethoxy]phenyl}-6-(4-fluorophenyl)thieno[2,3-d]pyrimidin-4-yl]oxy}-3-(2-{[2-(2-fluorophenyl)pyrimidin-4-yl]methoxy}phenyl)propanoic acid], the IC50 in test [1] (setting [3]) is 0.005 µM; at Mcl-1 protein (setting [4]) it was 2.1e-09 M. This compound returned a PARP fold in test [2] of 158.2 fold.

In the case of `CCOCc1nccc(COc2ccccc2C[C@@H](Oc2ncnc3sc(-c4ccc(F)cc4)c(-c4ccc(OCCN5CCN(C)CC5)c(Cl)c4C)c23)C(=O)O)n1` [Example 47, (2R)-2-{[(5Sa)-5-{3-chloro-2-methyl-4-[2-(4-methylpiperazin-1-yl)ethoxy]phenyl}-6-(4-fluorophenyl)thieno[2,3-d]pyrimidin-4-yl]oxy}-3-(2-{[2-(ethoxymethyl)pyrimidin-4-yl]methoxy}phenyl)propanoic acid], the results for the half-maximal inhibitory concentration (IC50) (in test [1] (MTT); on Mcl-1 protein (setting [4])) were 0.005 µM and 7.8e-09 M, respectively. In addition, the PARP fold in test [2] worked out at 101.1 fold.

On to `Cc1c(-c2c(-c3ccc(F)o3)sc3ncnc(OC(Cc4ccccc4OCc4ccnc(N5CCOCC5)n4)C(=O)O)c23)ccc(OCCN(C)C)c1Cl` [Example 202, (2R)-2-{[(5Sa)-5-{3-chloro-4-[2-(dimethylamino)ethoxy]-2-methylphenyl}-6-(5-fluorofuran-2-yl)thieno[2,3-d]pyrimidin-4-yl]oxy}-3-(2-{[2-(morpholin-4-yl)pyrimidin-4-yl]methoxy}phenyl)propanoic acid], for which the figures for the half-inhibitory concentration (IC50) (in test [1] (setting [3]); at Mcl-1 protein (setting [4])) were 0.009 µM and 3.5e-09 M, respectively. This compound also showed a PARP fold in test [2] of 153.8 fold.

For the compound `Cc1cc(-c2nccc(COc3ccccc3CC(Oc3ncnc4sc(-c5ccc(F)cc5)c(-c5ccc(OCCN6CCN(C)CC6)c(Cl)c5C)c34)C(=O)O)n2)c(C)cn1` [Example 731, (2R)-2-{[(5Sa)-5-{3-chloro-2-methyl-4-[2-(4-methylpiperazin-1-yl)ethoxy]phenyl}-6-(4-fluorophenyl)thieno[2,3-d]pyrimidin-4-yl]oxy}-3-(2-{[2-(2,5-dimethylpyridin-4-yl)pyrimidin-4-yl]methoxy}phenyl)propanoic acid], the IC50 in test [1] (setting [3]) was found to be 0.005 µM; at Mcl-1 protein (setting [5]), 9.48e-10 M. Also, the PARP fold in test [2] was found to be 175.5 fold.

In the case of `COc1ccccc1-c1nccc(COc2ccccc2CC(Oc2ncnc3sc(-c4ccc(F)cc4)c(-c4ccc(OCCN5CCN(C)CC5)c(Cl)c4C)c23)C(=O)OCOC(=O)C(C)(C)C)n1` [Example 810, {[(2R)-2-{[(5Sa)-5-{3-chloro-2-methyl-4-[2-(4-methylpiperazin-1-yl)ethoxy]phenyl}-6-(4-fluorophenyl)thieno[2,3-d]pyrimidin-4-yl]oxy}-3-(2-{[2-(2-methoxyphenyl)pyrimidin-4-yl]methoxy}phenyl)propanoyl]oxy}methyl 2,2-dimethylpropanoate], the IC50 in test [1] (Homo sapiens, NCI-H929, 48 h, cell viability) was found to be 0.001 µM; at Mcl-1 protein (fluorescence polarisation test, Method 1, or Method 2 where the value is underlined (underlining not visible)) it was 4.2e-07 M. The PARP fold in test [2] is recorded as 122.4 fold.

Consider `Cc1c(-c2c(-c3ccc(F)o3)sc3ncnc(OC(Cc4ccccc4OCc4ccnc(-c5cccs5)n4)C(=O)O)c23)ccc(OCCN2CCN(C)CC2)c1Cl` [Example 171, (2R)-2-{[(5Sa)-5-{3-chloro-2-methyl-4-[2-(4-methylpiperazin-1-yl)ethoxy]phenyl}-6-(5-fluorofuran-2-yl)thieno[2,3-d]pyrimidin-4-yl]oxy}-3-(2-{[2-(thiophen-2-yl)pyrimidin-4-yl]methoxy}phenyl)propanoic acid], for which the half-inhibitory concentration (IC50) in test [1] (setting [3]) was found to be 0.003 µM; on Mcl-1 protein (setting [4]), 4.1e-09 M. The PARP fold in test [2] is reported as 207.4 fold.

Take `Cc1c(-c2c(-c3ccc(F)o3)sc3ncnc(OC(Cc4ccccc4OCc4ccnc(C(F)(F)F)c4)C(=O)O)c23)ccc(OCCN2CCN(C)CC2)c1Cl` [Example 167, (2R)-2-{[(5Sa)-5-{3-chloro-2-methyl-4-[2-(4-methylpiperazin-1-yl)ethoxy]phenyl}-6-(5-fluorofuran-2-yl)thieno[2,3-d]pyrimidin-4-yl]oxy}-3-(2-{[2-(trifluoromethyl)pyridin-4-yl]methoxy}phenyl)propanoic acid]: the IC50 in test [1] (setting [3]) came out at 0.01 µM; at Mcl-1 protein (setting [4]), 4.6e-09 M. Besides, the PARP fold in test [2] is 230.1 fold.

Take `Cc1c(-c2c(-c3ccc(F)cc3)sc3ncnc(OC(Cc4ccccc4OCc4ccnc(OC(C)C)n4)C(=O)O)c23)ccc(OCCN2CCN(C)CC2)c1Cl` [Example 55, (2R)-2-{[(5Sa)-5-{3-chloro-2-methyl-4-[2-(4-methylpiperazin-1-yl)ethoxy]phenyl}-6-(4-fluorophenyl)thieno[2,3-d]pyrimidin-4-yl]oxy}-3-(2-{[2-(propan-2-yloxy)pyrimidin-4-yl]methoxy}phenyl)propanoic acid]: the IC50 in test [1] (setting [3]) amounted to 0.007 µM; at Mcl-1 protein (setting [4]), 5.8e-09 M. In addition, the PARP fold in test [2] is given as 188.4 fold.

As for `COCCOC(=O)C(Cc1ccccc1OCc1ccnc(-c2ccccc2OC)n1)Oc1ncnc2sc(-c3ccc(F)cc3)c(-c3ccc(OCCN4CCN(C)CC4)c(Cl)c3C)c12` [Example 789, 2-methoxyethyl (2R)-2-{[(5Sa)-5-{3-chloro-2-methyl-4-[2-(4-methylpiperazin-1-yl)ethoxy]phenyl}-6-(4-fluorophenyl)thieno[2,3-d]pyrimidin-4-yl]oxy}-3-(2-{[2-(2-methoxyphenyl)pyrimidin-4-yl]methoxy}phenyl)propanoate], the IC50 was 0.206 µM in test [1] (setting [3]) and 3.82e-07 M at Mcl-1 protein (setting [5]). In test [2], this compound registered a PARP fold of 135.2 fold.
